Where two headings read alike, the source gives them in different places.
System: PKMYT1 (CDK1 pThr14) in FUOV1 cells
Experiment: PKMYT1 cell-based activity assay, CDK1 pThr14 AlphaLISA in FUOV1 cells
Conditions: 2 h, read-out: FUOV-1 CDK1 pThr14 IC50
In short: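 FUOV1 cells were treated with PKMYT1 inhibitor for 2 h at 37 °C, then lysed. CDK1 pThr14 was measured by AlphaLISA, pairing an anti-pThr14 antibody with an anti-total CDK1 antibody (5 nM each). Signal read at 680/615 nm and used to derive IC50.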

Structure (SMILES)	IC50 (2 hours with compound) [nM]	IC50 (2 h compound incubation) [nM]	other results
Cc1ccc2[nH]ncc2c1-c1nc(-c2cc(F)cnc2N[C@H]2CC[C@@H](O)CC2)nc(C(N)=O)c1N [Compound 828]	30		
Cc1ccc2[nH]ncc2c1-c1nc(-c2ccc(F)cc2Nc2ccccc2F)nc(C(N)=O)c1N [Compound 589]		111	
Cc1ccc(-c2nc(C(N)=O)c(N)c(-c3c(C)ccc4[nH]ncc34)n2)c(Nc2nccc(Cl)n2)n1 [Compound 941]	9		
Cc1ccc2[nH]ncc2c1-c1nc(-c2ccc(F)cc2NC2CS(=O)(=O)C2)nc(C(N)=O)c1N [Compound 811, 5-amino-2-(2-((1,1-dioxidothietan-3-yl)amino)-4-fluorophenyl)-6-(5-methyl-1H-indazol-4-yl)pyrimidine-4-carboxamide]	30		
Cc1ccc2[nH]ncc2c1-c1nc(-c2cc(F)cnc2NCC(C)(C)O)nc(C(N)=O)c1N [Compound 683]		65	
Cc1ccnnc1Nc1ncccc1-c1nc(C(N)=O)c(N)c(-c2c(C)ccc3[nH]ncc23)n1 [Compound 563]		38	
Cc1ccc2[nH]ncc2c1-c1nc(-c2ccc(F)cc2Nc2cccc(F)c2)nc(C(N)=O)c1N [Compound 663]		359	
Cc1ccc2[nH]ncc2c1-c1cc(-c2ccnc(OCc3nccn3C)n2)nc(C(N)=O)c1N [Compound 301]			IC50 (2 h incubation): 39 nM
Cc1ccc2[nH]ncc2c1-c1nc(-c2cc(F)cnc2NCC(C)(C)C#N)nc(C(N)=O)c1N [Compound 702]		14	
Cc1ccc2[nH]ncc2c1-c1nc(-c2ccccc2CO)nc(C(N)=O)c1N [Compound 779]		494	
Cc1ccc2[nH]ncc2c1-c1nc(-c2ccc(Cl)nc2Nc2nccnc2F)nc(C(N)=O)c1N [Compound 825]	9		
Cc1ccc2[nH]ncc2c1-c1nc(-c2cccnc2NCC2COC2)nc(C(N)=O)c1N [Compound 676]		> 10000	
Cc1ccnc(Nc2c(F)cccc2-c2nc(C(N)=O)c(N)c(-c3c(C)ccc4[nH]ncc34)n2)n1 [Compound 776, 5-amino-2-(3-fluoro-2-((4-methylpyrimidin-2-yl)amino)phenyl)-6-(5-methyl-1H-indazol-4-yl)pyrimidine-4-carboxamide]		1130	
Cc1ccc2[nH]ncc2c1-c1nc(-c2cccnc2NC2CC2)nc(C(N)=O)c1N [Compound 914, 5-amino-2-(2-(cyclopropylamino)pyridin-3-yl)-6-(5-methyl-1H-indazol-4-yl)pyrimidine-4-carboxamide]	54		
Cc1ccc2[nH]ncc2c1-c1nc(-c2ccc(F)cc2Nc2cncnc2C)nc(C(N)=O)c1N [Compound 695]		41	
Cc1ccc(O)c(C)c1-c1nc(-c2cc(F)cnc2NCC(F)F)nc(C(N)=O)c1N [Compound 700, 5-amino-2-(2-((2,2-difluoroethyl)amino)-5-fluoropyridin-3-yl)-6-(3-hydroxy-2,6-dimethylphenyl)pyrimidine-4-carboxamide]		9	
Cc1ccc2[nH]ncc2c1-c1nc(-c2cc(F)cnc2NCC(F)(F)F)nc(C(N)=O)c1N [Compound 747]		87	
Cc1ccc2[nH]ncc2c1-c1nc(-c2ccc(F)cc2Nc2cncc(C#N)c2)nc(C(N)=O)c1N [Compound 673]		1710	
[2H]C([2H])([2H])c1ccc2[nH]ncc2c1-c1nc(-c2cc(F)cnc2N[C@H]2C[C@@](C)(O)C2)nc(C(N)=O)c1N [Compound 964]	68		
Cc1ccc2[nH]ncc2c1-c1nc(-c2cccnc2N2CCOCC2)nc(C(N)=O)c1N [Compound 662]		> 10000	
Cc1ccc(-c2nc(C(N)=O)c(N)c(-c3c(C)ccc4[nH]ncc34)n2)c(Nc2ncccn2)c1 [Compound 653]		61	
[2H]C([2H])([2H])c1ccc2[nH]ncc2c1-c1nc(-c2cccnc2NC23CC(C(=O)OC)(C2)C3)nc(C(N)=O)c1N [Compound 961, methyl 3-((3-(5-amino-4-carbamoyl-6-(5-(methyl-d3)-1H-indazol-4-yl)pyrimidin-2-yl)pyridin-2-yl)amino)bicyclo[1.1.1]pentane-1-carboxylate]	223		
NC(=O)c1nc(-c2cccnc2NCC(F)(F)F)nc(-c2c(Cl)ccc3[nH]ncc23)c1N [Compound 912]	178		

Structure (SMILES)	IC50 (2 hours with compound) [nM]	IC50 (2 h compound incubation) [nM]	other results
Cc1ccc(-c2nc(C(N)=O)c(N)c(-c3c(Cl)ccc4[nH]ncc34)n2)c(Nc2ncccn2)n1 [Compound 950]	42		
Cc1ccc2[nH]ncc2c1-c1nc(-c2ccc(Cl)nc2Nc2nccnc2C)nc(C(N)=O)c1N [Compound 780]		25	
Cc1ccc2[nH]ncc2c1-c1nc(-c2cccnc2Nc2nc(F)ccc2F)nc(C(N)=O)c1Cl [Compound 314, 5-chloro-2-[2-[(3,6-difluoro-2-pyridyl)amino]-3-pyridyl]-6-(5-methyl-1H-indazol-4-yl)pyrimidine-4-carboxamide]			IC50 (2 h incubation): 1620 nM
Cc1ccc2[nH]ncc2c1-c1nc(-c2cc(F)c(F)cc2NC2CNC2)nc(C(N)=O)c1N [Compound 486]		114	
Cc1ccc2[nH]ncc2c1-c1nc(-c2cn(C(F)(F)F)nc2NC2CCOCC2)nc(C(N)=O)c1N [Compound 910]	200		
Cc1cc(C)nc(Nc2cc(F)ccc2-c2nc(C(N)=O)c(N)c(-c3c(C)ccc4[nH]ncc34)n2)n1 [Compound 567]		389	
Cc1ccc2[nH]ncc2c1-c1nc(-c2ccc(F)nc2Nc2ncccc2F)nc(C(N)=O)c1N [Compound 929]	7		
Cc1ccc2[nH]ncc2c1-c1nc(-c2ccc(F)cc2Nc2ncccn2)nc(C(N)=O)c1N [Compound 511]		25	
Cc1ccc2[nH]ncc2c1-c1nc(-c2cc(Cl)ncc2NC2CC(F)(F)C2)nc(C(N)=O)c1N [Compound 840]	54		
Cc1ccc2[nH]ncc2c1-c1nc(-c2ccc(F)nc2Nc2cccnc2F)nc(C(N)=O)c1N [Compound 917]	203		
Cc1ccc2[nH]ncc2c1-c1nc(-c2ccc(C#N)cc2Nc2ncccc2F)nc(C(N)=O)c1N [Compound 739]		9	
Cc1cc(F)c2[nH]ncc2c1-c1nc(-c2ccc(F)nc2Nc2nc(C(F)F)ccc2F)nc(C(N)=O)c1N [Compound 867]	14		
Cc1ccc2[nH]ncc2c1-c1nc(-c2ccc(F)cc2Nc2cccnc2C#N)nc(C(N)=O)c1N [Compound 674]		27	
Cc1ccc2[nH]ncc2c1-c1nc(-c2ccc(F)cc2Nc2cncc(F)c2)nc(C(N)=O)c1N [Compound 665]		41	
Cc1ccc2[nH]ncc2c1-c1nc(-c2cc(F)cnc2N[C@@H]2CC[C@@H](O)C2)nc(C(N)=O)c1N [Compound 851]	44		
Cc1ccc2n[nH]cc2c1-c1nc(-c2cc(F)cnc2N[C@H]2C[C@](O)(C(F)F)C2)nc(C(N)=O)c1N [Compound 897]	122		
Cc1ccc2[nH]ncc2c1-c1nc(-c2cccnc2Nc2ncccc2C(F)F)nc(C(N)=O)c1N [Compound 720]		7	
Cc1ccc2[nH]ncc2c1-c1nc(-c2ccc(F)nc2N[C@H]2C[C@@](C)(O)C2)nc(C(N)=O)c1N [Compound 791]		61	
Cc1ccc2[nH]ncc2c1-c1nc(-c2ccc(F)cc2N[C@H]2C[C@@](C)(O)C2)nc(C(N)=O)c1N [Compound 862]	121		
Cc1ccnc(Nc2cc(F)ccc2-c2nc(C(N)=O)c(N)c(-c3c(C)ccc4[nH]ncc34)n2)n1 [Compound 534]		87	
Cc1ccc2[nH]ncc2c1-c1nc(-c2cc(F)ccc2Nc2ccnn2C)nc(C(N)=O)c1N [Compound 522]		101	
Cc1ccc2[nH]ncc2c1-c1nc(-c2cc(F)cnc2NC2CC3(COC3)C2)nc(C(N)=O)c1N [Compound 713]		> 10000	
